Data taken from publication PMC5590943, “Pharmacological characterisation of S 47445, a novel positive allosteric modulator of AMPA receptors” (PLoS ONE, 2017).
Where two headings read alike, the source gives them in different places.

Experiments:
[1] = test system: Human AMPA receptors; test: AMPA-evoked currents, Xenopus laevis oocytes injected with human hippocampal poly(A+) mRNA; assay type: cell-based; settings: geometric mean
Protocol: (§1) Compounds were tested by bath application.

[2] = biological target: AMPA/Kainate chimera GluA1(K2NTD) (Homo sapiens, UniProt P42261+Q13002); test: Glutamate-evoked current in oocytes expressing AMPA/Kainate chimera; assay type: cell-based
AMPA/Kainate chimera GluA1(K2NTD), sequence (Q13002+P42261 fused, change not shown): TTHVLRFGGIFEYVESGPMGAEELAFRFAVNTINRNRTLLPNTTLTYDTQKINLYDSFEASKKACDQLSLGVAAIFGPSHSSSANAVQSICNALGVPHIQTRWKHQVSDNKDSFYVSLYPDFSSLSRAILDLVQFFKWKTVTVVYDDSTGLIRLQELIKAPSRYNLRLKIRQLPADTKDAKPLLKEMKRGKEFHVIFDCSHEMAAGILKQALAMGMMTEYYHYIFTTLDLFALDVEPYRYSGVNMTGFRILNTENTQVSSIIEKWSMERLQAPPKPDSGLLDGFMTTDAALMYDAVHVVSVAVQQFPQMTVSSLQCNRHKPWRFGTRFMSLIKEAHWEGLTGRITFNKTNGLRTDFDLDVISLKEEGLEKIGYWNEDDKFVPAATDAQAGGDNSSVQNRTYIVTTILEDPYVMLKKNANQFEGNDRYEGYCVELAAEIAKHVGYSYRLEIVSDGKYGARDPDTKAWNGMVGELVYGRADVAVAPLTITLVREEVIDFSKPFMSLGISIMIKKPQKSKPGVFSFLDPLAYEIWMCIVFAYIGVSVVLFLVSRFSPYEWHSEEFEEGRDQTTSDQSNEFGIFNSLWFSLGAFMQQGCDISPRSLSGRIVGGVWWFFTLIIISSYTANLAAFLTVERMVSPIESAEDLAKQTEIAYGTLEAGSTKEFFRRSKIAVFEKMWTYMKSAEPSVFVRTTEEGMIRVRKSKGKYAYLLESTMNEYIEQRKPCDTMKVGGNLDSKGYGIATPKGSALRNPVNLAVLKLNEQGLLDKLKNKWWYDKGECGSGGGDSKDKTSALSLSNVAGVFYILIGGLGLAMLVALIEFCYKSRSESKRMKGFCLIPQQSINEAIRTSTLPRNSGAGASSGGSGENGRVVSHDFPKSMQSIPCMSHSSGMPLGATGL
Protocol: as §1

[3] = test system: male NMRI mice; test: Spontaneous locomotor activity in mice; assay type: in vivo, mouse; settings: 10, 30 and 100 mg/kg p.o. acute
Protocol: Locomotor activity was measured in male NMRI mice (18–20 g, Janvier Labs, Le Genest Saint Isle, France) placed in open-fields equipped with infrared sensors (Imetronic, Pessac, France). Two parameters were automatically computed: the global locomotor activity and the number of rearing by counting the number of times the animal cut photocells. Mice were placed in the apparatus 30 min after oral administration of S 47445 (10, 30 and 100 mg/kg) or vehicle. Spontaneous locomotor activity was recorded for 60 min divided in 6 x 10-min periods. The global locomotor activity was analysed using two way ANOVA (dose x time) followed by Dunnett’s post hoc test. Analyses were performed using SAS v9.2 software (SAS Institute, Cary, NC).

[4] = test system: male NMRI mice; test: Functional observation battery in mice; assay type: in vivo, mouse
Protocol: The effect of 47445 after high doses administration was assessed on general behaviour in mice. Male NMRI mice (18–22 g, Janvier Labs, Le Genest Saint Isle, France) were used and placed individually for habituation, 15 min before administration. Room temperature was maintained at 20.9°C during experimentation. At T0 min, body temperature was monitored via a rectal probe connected to a computer (Viewpoint). Mice were then orally treated with S 47445 (30, 100 and 300 mg/kg) or vehicle. […] Delta of body temperature compared to T0 min (°C) was calculated. Groups were compared for body temperature at T0 min with a one-way ANOVA followed by Tukey’s pair-wise comparison post hoc tests. The treatment effect on delta of body temperature compared to T0 min was analysed using a two-way ANOVA followed by Dunnett’s post hoc tests. Analyses were performed using SAS v9.2 software (SAS Institute, Cary, NC).

[5] = Solubility noted in co-crystallization experiments with GluA2; assay type: physicochemical; settings: prevented co-crystallization with GluA2
[6] = set-up: method as in previous kinetic experiments (reference not given); settings: 0.3 mg/kg oral, rats; ref previous kinetic experiments (reference not given); read-out: Cerebral Cmax; cited from earlier work
[7] = set-up: method as in previous kinetic experiments (reference not given); settings: 0.3 mg/kg oral, mice; ref previous kinetic experiments (reference not given); read-out: Cerebral Cmax; cited from earlier work
[8] = test system: CA3-CA1 hippocampal synapses; set-up: method as in PMID 28603025; settings: cited from earlier work
[9] = test system: mature form of BDNF; set-up: method as in PMID 7718245; settings: aged rats, from the dose of 1 mg/kg; cited from earlier work
[10] = test system: Y (non-selective); test: Binding assay, [3H]NPY
[11] = test system: GABA (non-selective); test: Binding assay, [3H]GABA
[12] = test system: I2; test: Binding assay, [3H]idazoxan
[13] = biological target: Estrogen a (h) (ERa) (Homo sapiens, UniProt P03372); test: Binding assay, fluormone ES2
Estrogen a (h) (ERa), sequence (P03372 whole entry): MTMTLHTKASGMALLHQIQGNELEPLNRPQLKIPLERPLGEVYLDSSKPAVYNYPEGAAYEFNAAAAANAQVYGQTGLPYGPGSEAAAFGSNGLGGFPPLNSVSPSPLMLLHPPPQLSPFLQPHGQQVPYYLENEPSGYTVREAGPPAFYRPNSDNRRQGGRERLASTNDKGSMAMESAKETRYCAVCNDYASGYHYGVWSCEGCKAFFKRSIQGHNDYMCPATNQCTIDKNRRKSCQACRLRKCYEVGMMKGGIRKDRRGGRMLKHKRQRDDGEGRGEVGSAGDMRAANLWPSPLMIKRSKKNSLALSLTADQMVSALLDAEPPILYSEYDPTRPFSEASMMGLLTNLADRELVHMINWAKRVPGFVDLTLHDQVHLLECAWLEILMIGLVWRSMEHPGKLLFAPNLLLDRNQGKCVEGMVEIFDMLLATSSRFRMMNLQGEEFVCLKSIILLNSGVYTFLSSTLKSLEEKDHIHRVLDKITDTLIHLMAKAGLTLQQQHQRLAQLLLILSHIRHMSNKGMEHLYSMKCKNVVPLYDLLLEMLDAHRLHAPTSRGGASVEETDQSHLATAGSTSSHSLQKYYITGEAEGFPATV

[14] = test system: Ca2+ channel (L, diltiazem site) (benzothiazepines); test: Binding assay, [3H]diltiazem
[15] = test system: BZD (central); test: Binding assay, [3H]flunitrazepam
[16] = test system: Ca2+ channel (L, DHP site); test: Binding assay, [3H](+)PN 200-110
[17] = test system: K^+ATP channel; test: Binding assay, [3H]glibenclamide
[18] = test system: ATPase (Na+/K+); test: Enzyme and cell-based assay, ATP (2 mM)
[19] = biological target: 5-HT1B (Rattus norvegicus, UniProt P28564); test: Binding assay, [125I]CYP (+ 30 μM (-)propranolol); settings: probe [125I]CYP
5-HT1B, sequence (P28564 whole entry): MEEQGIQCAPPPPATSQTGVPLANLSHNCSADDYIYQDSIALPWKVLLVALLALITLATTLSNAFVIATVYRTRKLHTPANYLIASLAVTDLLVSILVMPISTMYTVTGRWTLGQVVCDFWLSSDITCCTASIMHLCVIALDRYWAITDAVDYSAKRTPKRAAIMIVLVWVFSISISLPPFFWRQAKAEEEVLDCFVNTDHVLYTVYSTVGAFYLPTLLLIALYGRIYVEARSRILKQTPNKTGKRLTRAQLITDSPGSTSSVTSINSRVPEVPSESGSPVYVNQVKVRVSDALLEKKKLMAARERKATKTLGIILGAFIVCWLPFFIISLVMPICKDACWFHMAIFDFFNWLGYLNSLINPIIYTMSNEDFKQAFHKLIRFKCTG

[20] = biological target: p38a kinase (h) (Homo sapiens, UniProt Q16539); test: Enzyme and cell-based assay, ATP + ATF-2 (0.1 μM)
p38a kinase (h), sequence (Q16539 whole entry): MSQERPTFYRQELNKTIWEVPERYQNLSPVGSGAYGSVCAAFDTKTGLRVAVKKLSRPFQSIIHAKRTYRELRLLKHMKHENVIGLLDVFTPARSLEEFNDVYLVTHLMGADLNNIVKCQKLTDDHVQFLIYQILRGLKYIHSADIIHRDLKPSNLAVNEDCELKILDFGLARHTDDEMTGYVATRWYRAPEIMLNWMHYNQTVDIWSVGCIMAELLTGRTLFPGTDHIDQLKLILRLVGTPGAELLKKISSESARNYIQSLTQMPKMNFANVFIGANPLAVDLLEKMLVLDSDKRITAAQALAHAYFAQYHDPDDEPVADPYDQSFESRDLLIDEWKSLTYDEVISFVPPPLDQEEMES

[21] = test system: PDE1; test: Enzyme and cell-based assay, [3H]cAMP + cAMP (1 μM)
[22] = test system: PDE3 (h); test: Enzyme and cell-based assay, [3H]cAMP + cAMP (0.1 μM)
[23] = test system: AMPA; test: Binding assay, [3H]AMPA, rat cerebral cortex membranes
[24] = test system: Phospholipase A2; test: Enzyme and cell-based assay, [3H]phosphatidylethanolamine

With `O=C1c2cc3nnn(CCc4cccc(F)c4)c(=O)c3cc2OCN1C1CC1` [S 47445, 8-cyclopropyl-3-[2-(3-fluorophenyl)ethyl]-7,8-dihydro-3H-[1,3]oxazino[6,5-g][1,2,3]benzotriazine-4,9-dione] the EC2X ([1]; concentration giving a two-fold increase in current amplitude) was 4.77 µM, the EC50 ([1]; potentiation of 10 μM AMPA-evoked current) was 7.08 µM and the EC50 [2] was 4.2 µM. For the same compound, the “Global spontaneous locomotor activity” value [3] was “did not significantly modify”, the Number of rearing [3] was “did not influence” and the “Body temperature and behavior” value ([4]; 30, 100 and 300 mg/kg oral acute) was “no significant effect”. The Spontaneous epileptic seizures ([4]; up to 300 mg/kg p.o.) was “No occurrence”, the Solubility [5] was “poor solubility” and the Cmax [6] was 100 to 200 nM. For the same compound, the Cmax [7] was 100 to 200 nM, the “Age-related deficit of LTP” value ([8]; 10 mg/kg chronic, old alert mice) was “significantly counteracted the deficit of LTP” and the “Long term potentiation (LTP) versus vehicle” value ([8]; 10 mg/kg p.o. acute, young alert mice) was “significantly increased long term potentiation”. The “Neurotrophic effect on BDNF proteins” value [9] was “inducing mature form of BDNF proteins”, the “% Inhibition of control specific binding” value ([10]; S 47445 1.0E-05 M) was -6% and the “% Inhibition of control specific binding” value ([10]; S 47445 1.0E-07 M) was -4%. The “% Inhibition of control specific binding” value ([11]; S 47445 1.0E-05 M) was 7%, the “% Inhibition of control specific binding” value ([11]; S 47445 1.0E-07 M) was 4% and the “% Inhibition of control specific binding” value ([12]; S 47445 1.0E-05 M) was 29%. The “% Inhibition of control specific binding” value ([12]; S 47445 1.0E-07 M) was -5%, the “% Inhibition of control specific binding” value ([13]; S 47445 1.0E-05 M) was 5% and the “% Inhibition of control specific binding” value ([13]; S 47445 1.0E-07 M) was 4%. For the same compound, the “% Inhibition of control specific binding” value ([14]; S 47445 1.0E-05 M) was 25%, the “% Inhibition of control specific binding” value ([14]; S 47445 1.0E-07 M) was -6% and the “% Inhibition of control specific binding” value ([15]; S 47445 1.0E-05 M) was -21%. For the same compound, the “% Inhibition of control specific binding” value ([15]; S 47445 1.0E-07 M) was -2%, the “% Inhibition of control specific binding” value ([16]; S 47445 1.0E-05 M) was 1% and the “% Inhibition of control specific binding” value ([16]; S 47445 1.0E-07 M) was -16%. The “% Inhibition of control specific binding” value ([17]; S 47445 1.0E-05 M) was 0%, the “% Inhibition of control specific binding” value ([17]; S 47445 1.0E-07 M) was 6% and the “% Inhibition of control specific binding” value ([18]; S 47445 1.0E-05 M) was -2%. The “% Inhibition of control specific binding” value ([18]; S 47445 1.0E-07 M) was -3%, the inhibition at 100 nM [19] was -7% and the inhibition at 10 µM [19] was -3%. For the same compound, the “% Inhibition of control specific binding” value ([20]; S 47445 1.0E-05 M) was 4%, the “% Inhibition of control specific binding” value ([20]; S 47445 1.0E-07 M) was 2% and the “% Inhibition of control specific binding” value ([21]; S 47445 1.0E-05 M) was 10%. The “% Inhibition of control specific binding” value ([21]; S 47445 1.0E-07 M) was 1%, the “% Inhibition of control specific binding” value ([22]; S 47445 1.0E-05 M) was -5% and the “% Inhibition of control specific binding” value ([22]; S 47445 1.0E-07 M) was 0%. The “% Inhibition of control specific binding” value ([23]; S 47445 1.0E-05 M) was -8%, the “% Inhibition of control specific binding” value ([23]; S 47445 1.0E-07 M) was 1% and the Ki ([23]; read-out: Ki, glutamate binding site, n = 2) was greater than 10 µM. The “% Inhibition of control specific binding” value ([24]; S 47445 1.0E-05 M) was -4% and the “% Inhibition of control specific binding” value ([24]; S 47445 1.0E-07 M) was 0%.
